Test results: patent US20220304305A1, “HIGHLY EFFECTIVE FORMULATIONS ON THE BASIS OF 2-[(2,4-DICHLORPHENYL)-METHYL]-4,4'-DIMETHYL-3-ISOXAZOLIDINONES AND PREEMERGENCE HERBICIDES” (Bayer Aktiengesellschaft, priority 2019, published 2022)

How the values were obtained:
[1] = system: gramineous weeds in winter cereals; assay: Greenhouse trials, activity against gramineous weeds (summary in words); assay type: in vivo; conditions: with both adjuvants from as low as 250 g/ha
Protocol: In the standard implementation of the test, seeds of various broad-leaved weed and weed grass biotypes (origins) were sown in an 8-13 cm diameter pot filled with natural soil of a standard field soil (loamy silt; non-sterile) and covered with a covering soil layer of about 1 cm. The pots were then cultivated in a greenhouse (light for 12-16 h, temperature 20-22° C. by day, 15-18° C. by night) until the time of application. The pots were treated on a laboratory track sprayer with spray liquors comprising the mixtures/compositions of the invention, mixtures of the prior art or the components applied individually. Application of the active ingredients or active ingredient combinations formulated as WG, WP, EC or otherwise was effected at the appropriate growth stages of the plants. The amount of water used for spray application was 100-600 l/ha. After the treatment, the plants were returned to the greenhouses.
About 3 weeks after the application, the soil action or/and foliar action was assessed visually according to a scale of 0-100% in comparison to an untreated comparative group: 0%=no noticeable effect compared to the untreated comparative group; 100%=full effect compared to the untreated comparative group. […]

[2] = list of substances and abbreviations used; cited from earlier work

Row | SMILES | improvement [1] | log P [2]
1 | CC1(C)CON(Cc2ccc(Cl)cc2Cl)C1=O [DCPMI, 2-[(2,4-dichlorophenyl)methyl]-4,4′-dimethyl-3-isoxazolidinone] | significant improvement | abbreviated hereinafter to DCPMI), log P = 3.39
2 | CC(C)N(C(=O)COc1nnc(C(F)(F)F)s1)c1ccc(F)cc1 [flufenacet, 4′-fluoro-N-isopropyl-2-(5-trifluoromethyl-1,3,4-thiadiazol-2-yloxy)acetanilide] |  | (Bayer AG), abbreviated hereinafter to FFA, log P = 3.2
